The text below walks through data of patent US20240350497A1, “COMBINATION THERAPY FOR THE TREATMENT OF PAN-KRAS MUTATED CANCERS” (Tiziana Life Sciences PLC, priority 2021, published 2024).

Like-named read-outs stand apart in the source and are kept apart here.

Data set [1] relates to BX-PC3 human pancreatic carcinoma. Nature of the data set: milciclib in combination with gemcitabine, BX-PC3 human pancreatic carcinoma, second experiment. As to conditions: for animal deaths: single agents at the tested doses. As to the method: A second experiment was conducted of milciclib in combination with gemcitabine on BX-PC3 human pancreatic carcinoma (FIG. 12B and FIG. 12C).

Data set [2] relates to N-592 human small cell carcinoma. As to conditions: for animal deaths: single agents at the tested doses.
Description: Milciclib was tested orally at the doses of 20 and 30 mg/kg twice a day for 17 consecutive days.
Data set [3] has as its system A2780 human ovarian carcinoma. Description: A2780 human ovarian carcinoma xenografts, oral milciclib. Type of data set: in vivo, mice. As to the method: Pathogenic KRAS mutations were present in 606 patients of 7,325 epithelial ovarian cancers from the Caris Database, about 8.3% of the total. The frequency of KRAS mutation by subtype occurred in the following: 36.4% G12D, 35.8% G12V, and 8.4% G12C. A dose-dependent inhibition of tumor growth was measured in mice harboring A2780 human ovarian carcinoma xenografts administered with daily oral administration of milciclib.
A general note: A xenograft is tissue or cells of one species grown in another, often human tumour cells in immunodeficient mice.

The test system of data set [4] is advanced solid malignancies. As to conditions: oral, phase I; cited from earlier work.
The test system of data set [5] is HCT-116 human colon carcinoma. Nature of the data set: milciclib in combination with irinotecan, HCT-116 human colon carcinoma xenograft model. As to conditions: for animal deaths: single agents at the tested doses. As to the method: (§1) The efficacy of milciclib was tested in several human xenografts implanted in the hind flank region of athymic mice (FIG. 18). Models in nude mice included A2780 ovarian cancer, DU-145 prostatic cancer, BX-PC3 pancreatic cancer, A549 non-small cell lung cancer, MDA-MB-231 breast cancer, MIA-PACA-2 pancreatic cancer, A375 melanoma, CAPAN-1 pancreatic cancer, and HCT-116 colon cancer. The MIA-PACA-2 and CAPAN-1 pancreatic cancer cell lines both express KRAS mutants. The MIA-PACA-2 and CAPAN-1 cell lines tested with milciclib harbor the KRAS mutants, G12C and G12V, respectively. […] The HCT-116 colon cancer cell line expresses the G13D KRAS mutant, making up of 15.5% of CRC KRAS mutants Following implantation, tumors were allowed to establish to a size of 100 mm3 prior to oral administration of milciclib. In all these experiments, a daily bid treatment was administered for a maximum of 10 days.
Topoisomerase enzymes control the manipulation of the structure of DNA necessary for replication.

For data set [6], the system named is MIA-PACA-2 pancreatic cancer (KRAS G12C). Nature of the data set: human xenograft efficacy, MIA-PACA-2. Type of data set: in vivo, athymic mice. As to conditions: oral, daily bid treatment for a maximum of 10 days.
The test system of data set [7] is HCT-116 human colon carcinoma. Nature of the data set: milciclib in combination with 5-FU, HCT-116 human colon carcinoma xenograft. As to conditions: for animal deaths: single agents at the tested doses. As to the method:
as §1
Activity of milciclib has been tested in combination with 5-FU on HCT-116 human colon carcinoma cells (FIG. 10A). The HCT-116 cell line expresses the KRAS G13D mutant.

In data set [8] the test system is CAPAN-1 pancreatic cancer (KRAS G12V). Description: human xenograft efficacy, CAPAN-1. Type of data set: in vivo, athymic mice. As to conditions: oral, daily bid treatment for a maximum of 10 days.
The subject of data set [9] is BX-PC3 human pancreatic carcinoma. Nature of the data set: milciclib in combination with gemcitabine, BX-PC3 human pancreatic carcinoma, first experiment. As to conditions: for animal deaths: single agents at the tested doses. As to the method: A combination therapy of milciclib and the DNA damaging agent, gemcitabine, was treated on BX-PC3 human pancreatic carcinoma (FIG. 12A).

Data set [10] relates to KRAS G12D LA2 pulmonary cancerous lesions. Nature of the data set: transgenic mouse model KRAS G12D LA2, MRI. As to conditions: in vivo. As to the method:
Milciclib was tested in a transgenic mouse model KRAS G12D LA2 that develops pulmonary cancerous lesions reminiscent of human lung adenocarcinomas. Milciclib was tested to follow longitudinal disease progression and evaluate therapeutic efficacy by using magnetic resonance imaging (MRI) and positron emission tomography (PET). […] The MRI methodology used in this study allow longitudinal monitoring of tumor development and response in a single animal, and furthermore, allows for more clinically relevant study design and increases its statistical relevance.

The test system of data set [11] is MDA-MB-231 human breast cancer. As to the method:
FIG. 15A is a series of plots showing change in tumor volume in mice bearing MDA-MB-231 human breast cancer tumor xenografts following treatment with 40 mg/kg milciclib (PHA-848125) (n=8) or vehicle control (5% glucose solution) (n=8) via oral gavage twice daily on a 5-days-on/2-days-off schedule for four weeks. FIG. 15B is a series of images and a chart showing immunohistochemistry staining of Ki67 and mitotic nucleus counts, and corresponding quantification in tumor tissue collected 48 hours after the last treatment with milciclib (PHA-848125) or vehicle control for 3 weeks.

The next data set deals with MDA-MB-231 cells. Description: MDA-MB-231 cells exposed to milciclib and DNA damaging agent, alone or in combination. Type of data set: cell-based, human. As to conditions: TNBC cells. As to the method:
The use of milciclib in combination with five chemotherapeutic drugs already in use was tested for the treatment of TNBC including paclitaxel, doxorubicin, 5-FU, cisplatin, and cyclophosphamide. Potential synergistic effects with milciclib by exposing MDA-MB-231 cells to serial dilutions of milciclib and each DNA damaging agent, alone or in combination, in clinically relevant concentrations (FIG. 16A). […] Tumor proliferation was reduced by nearly 5 times for the combination treatment of milciclib and cisplatin compared to the vehicle treated group, assessed by Ki67 staining.

Data set [12] has as its system KRAS mutant tumor xenografts. Nature of the data set: KRAS mutant tumor xenografts treated with CDK inhibitor in vivo. Details: species or system mice. An excerpt:
FIG. 8A is a plot showing the change in tumor volume of KRAS mutant tumor xenografts in mice treated with vehicle control (DMSO) or the CDK inhibitor AZD5438.
FIG. 8B is a plot showing the percent survival of mice harboring KRAS mutant tumor xenografts following treatment with either vehicle control (DMSO) or the CDK inhibitor AZD5438. FIG. 8C is a chart showing the tumor weight in mice harboring KRAS mutant tumor xenografts following treatment with either vehicle control (DMSO) or the CDK inhibitor AZD5438. FIG. 8D is a series of images showing tumor shrinkage in mice harboring KRAS mutant tumor xenografts following treatment with the CDK inhibitor AZD5438.
(§2) The cyclin-dependent kinase, CDK1, is a synthetic lethal target for KRAS mutant tumors. KRAS mutant cells show increased activity of CDK1 (FIGS. 6A-6D). The inhibition of CDK1 causes a reduction in the S-phase of the cell cycle progression decreasing cell proliferation in KRAS mutant cells. This decreased cell cycle activity is observed by the modulation of Rb, a master control of the G1/S checkpoint. Through a series of experiments, including using parallel siRNA screens in KRAS mutant and wild type colorectal isogenic tumor cells and subsequently validated in a genetically diverse panel of 26 colorectal and pancreatic tumor cell models, the KRAS/CDK1 interaction has a synthetic lethal effect on cancer cells.

The subject of data set [13] is cell lines harboring KRAS mutations. Description: sensitivity of KRAS mutant cell lines to CDK inhibitor in vitro. The data set is classed as cell-based.
Description: as §2, with “FIG. 7A and FIG. 7B are plots showing dose-response curves of colorectal non-isogenic cells containing either wild type (WT) or mutated KRAS in response to CDK inhibitors AT7519 (FIG. 7A) or dinaciclib (FIG. 7B). The cyclin-dependent” for “The cyclin-dependent”

Another data set deals with NSCLC. As to conditions: single agent, Phase II studies; cited from earlier work.
The mark [14] stands for this setting: milciclib 20 mg/kg orally twice a day for 9 consecutive days.
Where [15] appears, read: milciclib 40 mg/kg orally twice a day for 9 consecutive days.

Turning to `CNC(=O)c1nn(C)c2c1C(C)(C)Cc1cnc(Nc3ccc(N4CCN(C)CC4)cc3)nc1-2` [milciclib, N,1,4,4-tetramethyl-8-((4-(4-methylpiperazin-1-yl)phenyl)amino)-4,5-dihydro-1H-pyrazolo[4,3-h]quinazoline-3-carboxamide], the TGI was 74% in data set [1] (setting [14]); 80% in data set [1] (milciclib 20 mg/kg twice a day for 15 days); 88% in [1] (setting [15]); 34% in data set [2] (milciclib 20 mg/kg orally twice a day for 17 consecutive days); 56% in [2] (milciclib 30 mg/kg orally twice a day for 17 consecutive days); 38% in [5] (milciclib 20 mg/Kg orally twice a day for 9 days). In addition, the TGI is 60% in [5] (milciclib 30 mg/Kg orally twice a day for 9 days); 42% in data set [7] (milciclib 20 mg/kg orally twice a day for 12 days); 64% in [7] (milciclib 30 mg/kg orally twice a day for 12 days); 61% in [9] (setting [14]); 79% in data set [9] (setting [15]). The animal deaths result in data set [1], in data set [2], in data set [5], in [7] and in [9] was “No animal died” throughout. Besides, the “tumor growth inhibition (TGI)” value in [3] (20 mg/kg bid) was 53%; in data set [3] (30 mg/kg bid), 76%; in [3] (40 mg/kg bid), 91%. In addition, the RP2D in data set [4] is given as 150 mg/day. The tolerability result in data set [4] is given as “well-tolerated”; in [11] (mouse, in vivo) it was “well tolerated”. In addition, the maximal inhibition was 70% in data set [6] and 65% in [8]. Besides, the “tumor growth inhibition at the end of treatment, measured by MRI” value in data set [10] is reported as “significant tumor growth inhibition”. Besides, the tumor growth result in [11] (40 mg/kg oral gavage twice daily, 5-days-on/2-days-off) was “arrests tumor growth”. Also, in the data set with MDA-MB-231 cells, the “interaction with cisplatin, cisplatin-induced apoptosis” value is “acts synergistically”.

On to `CC[C@@]1(O)C(=O)OCc2c1cc1n(c2=O)Cc2cc3c(CN(C)C)c(O)ccc3nc2-1` [topotecan, reference compound], for which the animal deaths result in data set [2] was “No animal died”. The TGI in data set [2] (topotecan 6 mg/kg IV q4dx5) was determined as 71%.

Take `CCc1c2c(nc3ccc(OC(=O)N4CCC(N5CCCCC5)CC4)cc13)-c1cc3c(c(=O)n1C2)COC(=O)[C@]3(O)CC` [irinotecan, reference compound]: the TGI in data set [5] (irinotecan 45 mg/kg IV q4dx3) is reported as 84%. Besides, the animal deaths entry in [5] was “No animal died”.

With `Cc1ncc(-c2ccnc(Nc3ccc(S(C)(=O)=O)cc3)n2)n1C(C)C` [AZD5438], in [12], the “sensitivity of KRAS mutant tumors” value was “increased sensitivity”.

In the case of `O=C(NC1CCNCC1)c1[nH]ncc1NC(=O)c1c(Cl)cccc1Cl` [AT519], the “sensitivity of KRAS mutant versus wild type cells” value in [13] is reported as “increased sensitivity”.

Consider `O=c1[nH]cc(F)c(=O)[nH]1` [Compound 5-FU, 5-fluorouracil, reference compound], for which the TGI in [7] (5-FU 50 mg/kg IV q7dx2) is 33%. Also, the animal deaths result in data set [7] is “No animal died”.

Take `Nc1ccn([C@@H]2O[C@H](CO)[C@@H](O)C2(F)F)c(=O)n1` [gemcitabine, reference compound]: the median survival with NSCLC is given as 9 months. Moreover, in the data set with NSCLC, the objective response rate is given as 20-25%. The values for the TGI in data set [1] (gemcitabine 80 mg/kg IV q4dx3), in data set [1] (gemcitabine 80 mg/kg IV q7dx3) and in [9] (gemcitabine 80 mg/kg IV) were 70%, 62% and 61%, respectively. For the same compound, the animal deaths result in data set [1] and in [9] was “No animal died” each time.
